# Measurements taken from patent US8207313B2, “Natural products from Vinca” (William Marsh Rice University, priority 2007, dated 2012).
# Columns and labels:
# Type in all cases: cell-based, Human
# THP-1 cells = experiment: THP-1 cell viability, MTS assay; conditions: THP-1 cells treated with the compound as in the MMP-9 test
# Experimental: In panels B, D, F and H; THP-1 cells were treated with the compound in A, C, E and G, and cell viability was tested with MTS assay.
# TNF-α = TNF-α in culture supernatant of LPS-activated THP-1 cells (sandwich ELISA); conditions: THP-1 cells pre-treated 2 h with compound, 1 μg/ml LPS, supernatant at 24 h, ELISA in duplicate
# Experimental: The blocking effect of compounds on cytokines expression (FIG. 2) induced by LPS in monocytic cell lines was then assessed. THP-1 cells were pre-treated with compounds for 2 h and activated with 1 μg/ml LPS. Culture supernatants were collected in 24 h and the TNF-α concentrations were measured using sandwich ELISA. Measurements were done in duplicate. […] Therefore the compounds work to suppress inflammatory response and are potent anti-inflammatory compounds.
# MMP-9 = MMP-9 expression in LPS-stimulated THP-1 cells (gelatin zymography); conditions: THP-1 cells pre-treated 2 h with 5, 10 and 20 μg/ml compound, then 1 μg/ml LPS, supernatant at 24 h; MMP-2 internal control
# Experimental: Several of the compounds were tested for pharmaceutical activity against two well known inflammatory mediators—MMP-9 and TNF-α. Compounds (1), (2), (3), and (4), were tested. An inflammatory reaction is stimulated with LPS and MMP-2 is used as an internal gene expression control.
# The inhibitory effect of flavonoid glycoside compounds on MMP-9 expression (FIG. 1) was assayed in THP-1 cells stimulated with LPS. In panels A, C, E and G; THP-1 cells were pre-treated with 5, 10 and 20 μg/ml of the compound specified for 2 h. After pre-treatment with the relevant compound, the cells were then stimulated with 1 μg/ml LPS. The culture supernatants were collected 24 h after activation and subjected to substrate gel electrophoresis (gelatin zymography) and staining with Coomassie brilliant blue.
SMILES,cell viability (THP-1 cells),TNF-α production (TNF-α),inhibition of MMP-9 expression (MMP-9)
"C/C=C(\C)[C@@H](CCC(C)CCCC(C)CCCC(C)C)OC1C(CO)OC(Oc2cc(O)c3c(=O)c(O)c(-c4ccc(OC)c(OC)c4)oc3c2)C(O)C1O (stereo partly drawn) [Compound (1), 3,5,7-trihydroxy-3′,4′-dimethoxyflavone-7β-D-glucopyranosyl(4″-13′″)2′″,6′″,10′″,14′″-tetramethyl hexadec-14-ene]",no negative impact on cell viability,inhibited,inhibits MMP-9 expression in a dose dependant manner
"CCC(C)C(CCC(C)CCCC(C)CCCC(C)C)OC1(CO)COC(COc2c(-c3ccc(OC)cc3)oc3cc(O)cc(O)c3c2=O)C(O)C1O [Compound (2), 3,5,7-trihydroxy-4′-methoxyflavone-3β-D-glucopyranosyl (4″-13′″)-2′″,6′″,10′″,14′″-tetramethyl hexadecane]",no negative impact on cell viability,inhibited,inhibits MMP-9 expression in a dose dependant manner
C=C(CCC=C(C)C)CC/C=C(\C)CC(=O)OCC1OC(Oc2ccc3c(c2)OC(c2ccc(OC)c(OC)c2)CC3=O)C(O)C(O)C1O (stereo not drawn) [Compound (3)],no negative impact on cell viability,inhibited,inhibits MMP-9 expression in a dose dependant manner
